Consider 9 compounds from ChEMBL document CHEMBL1201862, “PubChem BioAssay data set” (2004).

Each structure is given as a SMILES string. Active and inactive are the calls of the source.

Experiment [1] can be described thus: reduced cellular PGC1a acetyl-lysine signal – cell-based, cherry-picked samples, dose response (AID 720514).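 Note: potency may reflect raised or lowered acetylation signal.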 In kind it is functional.
The target in the next experiment is T1, Caspase-6 (Homo sapiens, UniProt P55212).
T1 sequence (P55212 whole entry): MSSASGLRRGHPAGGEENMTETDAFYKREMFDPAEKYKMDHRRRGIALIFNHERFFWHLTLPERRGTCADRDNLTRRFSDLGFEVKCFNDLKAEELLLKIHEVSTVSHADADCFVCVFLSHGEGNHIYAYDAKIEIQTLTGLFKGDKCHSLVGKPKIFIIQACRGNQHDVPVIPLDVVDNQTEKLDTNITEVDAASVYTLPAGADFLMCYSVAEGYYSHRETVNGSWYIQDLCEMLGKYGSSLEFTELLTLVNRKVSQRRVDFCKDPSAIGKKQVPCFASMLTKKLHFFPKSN
The experiment in a line: inhibition of CASP6 peptide cleavage – biochemical, VEID-R110 fluorescence, cherry-pick, dose response (AID 720632).

For experiment [2], the target named is T2, Heat shock factor protein 1 (Mus musculus, UniProt P38532).
T2 sequence (P38532 whole entry): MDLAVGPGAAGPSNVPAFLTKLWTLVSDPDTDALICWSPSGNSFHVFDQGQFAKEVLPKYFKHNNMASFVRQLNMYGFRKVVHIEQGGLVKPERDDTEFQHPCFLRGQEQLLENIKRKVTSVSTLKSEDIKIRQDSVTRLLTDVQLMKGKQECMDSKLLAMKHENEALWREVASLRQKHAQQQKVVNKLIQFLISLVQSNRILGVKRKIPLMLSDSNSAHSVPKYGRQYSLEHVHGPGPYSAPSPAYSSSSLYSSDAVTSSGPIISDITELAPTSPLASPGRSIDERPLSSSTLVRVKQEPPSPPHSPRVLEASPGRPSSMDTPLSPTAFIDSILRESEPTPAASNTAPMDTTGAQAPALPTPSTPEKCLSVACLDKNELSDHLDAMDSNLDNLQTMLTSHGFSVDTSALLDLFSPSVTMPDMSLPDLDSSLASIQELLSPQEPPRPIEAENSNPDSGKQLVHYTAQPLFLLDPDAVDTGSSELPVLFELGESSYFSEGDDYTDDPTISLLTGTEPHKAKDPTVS
The experiment in a line: enhancement of HSF1-driven luciferase signal – cell-based, NIH3T3, luminescence, dose retest, confirmation (AID 435004).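 Note: stress induced by proteasome inhibitor MG132 added 30 min after compound; luciferase reporter driven by HSF1 response element in NIH3T3 cells; actives raise luminescence as potentiators of the MG132 stress response.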 In kind it is functional.

The subject of the next experiment is Vero. The experiment in a line: cells. It counts as functional. The following applies: Chlorocebus sabaeus.
The target in the next experiment is Cytochrome P450 2C19 (Homo sapiens, UniProt P33261). The experiment in a line: qHTS Assay for Inhibitors and Substrates of Cytochrome P450 2C19. [Related pubchem assays: 410 ]. The following applies: read-out: Potency. It counts as ADME.
Chain of Cytochrome P450 2C19 (P33261 whole entry): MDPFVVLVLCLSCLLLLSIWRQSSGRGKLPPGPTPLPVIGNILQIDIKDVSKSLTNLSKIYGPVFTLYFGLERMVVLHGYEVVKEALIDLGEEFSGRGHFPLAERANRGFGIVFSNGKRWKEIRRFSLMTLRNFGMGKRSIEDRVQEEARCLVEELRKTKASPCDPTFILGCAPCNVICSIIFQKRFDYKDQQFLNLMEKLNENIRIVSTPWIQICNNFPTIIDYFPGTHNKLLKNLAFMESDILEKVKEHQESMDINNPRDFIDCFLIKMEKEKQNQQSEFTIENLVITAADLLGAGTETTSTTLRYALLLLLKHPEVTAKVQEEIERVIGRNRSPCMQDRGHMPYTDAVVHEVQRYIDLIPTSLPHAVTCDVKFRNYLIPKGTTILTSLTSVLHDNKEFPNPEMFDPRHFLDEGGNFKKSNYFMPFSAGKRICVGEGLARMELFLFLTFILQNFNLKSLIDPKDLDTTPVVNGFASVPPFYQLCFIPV
A short description of experiment [3]: P. falciparum Dd2 growth inhibitors, dose response, SYBR Green, cherry-picked samples (AID 1159567). In kind it is functional, cell-based.
The nature of experiment [4]: toxicity to human hepatoma HepG2 cells – cell-based, cherry-picked samples, cytotoxicity control, dose response (AID 1159577). In kind it is functional.
The nature of experiment [5]: A Cell Based Secondary Assay To Explore Cytotoxicity of Compounds that Sensitize Mycobacterium Tuberculosis to Beta-Lactam Antibiotics. In kind it is functional.
The target of the next experiment is T3, NADPH oxidase 1 (Homo sapiens, UniProt Q9Y5S8).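 Note: Cell-based assay with luminescence read-out, IC50 derived from inhibitor dose-response curves; intracellular ROS from endogenous NOX1 in intact HT29 colon cancer cells; potency of inhibitors that lower the ROS luminescence signal.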
T3 sequence (Q9Y5S8 whole entry): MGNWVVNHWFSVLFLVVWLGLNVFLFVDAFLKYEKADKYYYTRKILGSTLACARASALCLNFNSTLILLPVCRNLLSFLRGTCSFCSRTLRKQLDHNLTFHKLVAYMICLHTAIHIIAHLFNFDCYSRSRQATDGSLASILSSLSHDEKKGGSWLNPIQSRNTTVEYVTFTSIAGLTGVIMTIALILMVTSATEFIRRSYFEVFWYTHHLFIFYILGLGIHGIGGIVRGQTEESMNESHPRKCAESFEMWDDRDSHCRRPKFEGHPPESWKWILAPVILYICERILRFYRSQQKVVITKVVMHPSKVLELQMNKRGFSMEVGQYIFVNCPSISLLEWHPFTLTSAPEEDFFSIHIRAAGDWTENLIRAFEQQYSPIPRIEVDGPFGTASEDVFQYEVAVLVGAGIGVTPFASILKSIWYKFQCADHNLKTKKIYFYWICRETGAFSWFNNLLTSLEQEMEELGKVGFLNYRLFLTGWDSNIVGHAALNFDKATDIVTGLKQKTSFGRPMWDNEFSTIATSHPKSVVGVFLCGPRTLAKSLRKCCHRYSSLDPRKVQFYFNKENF
In kind it is functional, cell-based.

Experiment [6] concerns the target T4, Carboxy-terminal domain RNA polymerase II polypeptide A small phosphatase 1 (Homo sapiens, UniProt Q9GZU7).
T4 sequence (Q9GZU7 whole entry): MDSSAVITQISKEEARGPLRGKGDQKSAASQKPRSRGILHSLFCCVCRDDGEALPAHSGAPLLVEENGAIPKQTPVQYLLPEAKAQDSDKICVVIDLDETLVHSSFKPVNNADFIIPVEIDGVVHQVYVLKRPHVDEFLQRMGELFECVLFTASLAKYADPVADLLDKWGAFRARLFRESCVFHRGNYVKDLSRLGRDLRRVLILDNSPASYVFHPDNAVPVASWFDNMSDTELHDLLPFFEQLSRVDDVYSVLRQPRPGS
Nature of the experiment: CTDSP1 inhibitors, concentration-response, biochemical, absorbance readout, ultra-high-throughput screen actives (AID 540297). In kind it is functional.

Experiment [7] has as its target DNA dC->dU-editing enzyme APOBEC-3A (Homo sapiens, UniProt P31941). The experiment in a line: Dose Response confirmation of small molecule APOBEC3A DNA Deaminase Inhibitors via a fluorescence-based single-stranded DNA deaminase assay. [Related pubchem assays (depositor defined):AID493011, AID493024]. In kind it is functional.
For experiment [8], the target named is DNA dC->dU-editing enzyme APOBEC-3G (Homo sapiens, UniProt Q9HC16). It counts as functional.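 Note: Dose-response counterscreen measuring inhibition of APOBEC3G DNA deaminase activity, run while confirming APOBEC3A inhibitors.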
Chain of DNA dC->dU-editing enzyme APOBEC-3G (Q9HC16 whole entry): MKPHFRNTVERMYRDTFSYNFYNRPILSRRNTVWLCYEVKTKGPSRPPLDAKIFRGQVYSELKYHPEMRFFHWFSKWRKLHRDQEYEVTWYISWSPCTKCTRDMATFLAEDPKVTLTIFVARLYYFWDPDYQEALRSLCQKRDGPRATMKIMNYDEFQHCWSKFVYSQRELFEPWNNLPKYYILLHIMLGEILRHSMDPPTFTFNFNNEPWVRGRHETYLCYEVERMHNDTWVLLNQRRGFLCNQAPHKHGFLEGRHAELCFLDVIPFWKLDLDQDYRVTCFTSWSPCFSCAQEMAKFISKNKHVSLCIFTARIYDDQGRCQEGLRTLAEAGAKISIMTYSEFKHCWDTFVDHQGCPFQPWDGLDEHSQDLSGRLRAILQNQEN

Chain of DNA dC->dU-editing enzyme APOBEC-3A (P31941 whole entry): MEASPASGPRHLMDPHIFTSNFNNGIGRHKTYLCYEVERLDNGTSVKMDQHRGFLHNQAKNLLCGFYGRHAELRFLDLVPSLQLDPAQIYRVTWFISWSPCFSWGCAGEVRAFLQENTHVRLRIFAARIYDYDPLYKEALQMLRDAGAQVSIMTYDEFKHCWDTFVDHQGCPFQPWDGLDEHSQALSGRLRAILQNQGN

Take `CC(=O)N1CCN(S(=O)(=O)c2cccc(C(=O)Nc3ccc4c(c3)OCO4)c2)CC1`: in experiment [1], the AC50 is 25.1 µM (active).
Broadly, the EC50 is the concentration at which the effect is half-maximal. A word on the CC50: it is the concentration at which the toxic effect on the cells reaches its halfway point. `O=[N+]([O-])c1ccc(/C=[N+](\[O-])[C@@H]2CCCC[C@@H]2/[N+]([O-])=C/c2ccc([N+](=O)[O-])o2)o1`: the AC50 on Caspase-6 is 41.1 µM (active). For the same compound, the EC50 in experiment [2] is 8.46 µM (active). Further, the CC50 in the experiment with Vero is 14.8 µM (active).
`COC(=O)NC(c1ccccc1)C(C#N)C(=O)OC` (stereo not given): the AC50 at Cytochrome P450 2C19 is 3.16 µM (inconclusive).
In the case of `C/C=C/c1ccc([C@H]2[C@H](CO)N(c3nc(CC)cs3)[C@H]2CNC(C)C)cc1`, the AC50 in experiment [3] is 0.829 µM (active); in experiment [4] it was 20 µM (active).
In the case of `CSc1ncc(Cl)c(C(=O)Nc2cccc3ccccc23)n1`, the CC50 in [5] was > 40 µM (active).
The IC50 is the midpoint of a concentration-inhibition curve. As to `CSc1ccc2c(c1)Nc1ccccc1S2`, the IC50 at NADPH oxidase 1 is 0.241 µM (active).
In the case of `O=P(c1ccccc1)(c1ccccc1)c1cc(S(=O)(=O)O)ccc1O`, the values for the IC50 in experiment [6], in experiment [7] and in experiment [8] were 9.24 µM (active), 14.3 µM (active) and 45 µM (active), respectively. In addition, on Caspase-6, the AC50 was 1.78 µM (active).
Take `CCOC(=O)[C@H](Cc1c[nH]c2ccccc12)NC(=O)CN=[N+]=[N-]`: on Caspase-6, the AC50 was 6.78 µM (active).
Consider `Nc1c(Cl)cc(-c2csc(N3CCCC3c3nc4cc(Cl)c(N5CCCCC5)cc4n3CCCO)n2)cc1Cl` (stereo not given), for which, in experiment [5], the CC50 was > 40 µM (active).
